Key:
[1] = Absorption characteristics: transmission spectrum of near-infrared absorbing layer of NIR filter (UV-visible spectrophotometer); type: physicochemical
Description: Further, the transmittance of the near-infrared absorbing layer can be measured by using an ultraviolet visible light spectrophotometer. For example, when the near-infrared absorbing layer is provided on a glass substrate, the transmittance is calculated by subtracting the transmittance of only the glass substrate. Note that the transmittance of light of the near-infrared absorbing layer refers to, unless otherwise stated, a ratio to light incident from a direction orthogonal to a main surface of a sample, the ratio of this light traveling straight inside the sample and transmitted to an opposite side. Further, when the transmittance is measured by making light incident from a direction other than the direction orthogonal to the main surface of the sample in the measurement of transmittance of light, an angle made by a straight line indicating the direction of the incident light to a line orthogonal to the main surface is called an incident angle.
In the condition (ii-3), the value calculated by nd(B)×(λa−λc) (hereinafter, this value may also be described as “Is value”) is a value to be an index indicating steepness of the absorption curve in the vicinity of the boundary between the visible light region and the near-infrared region with respect to a transmission spectrum of the near-infrared absorbing layer. When this value is 115 or less, the absorption curve in the vicinity of the boundary between the visible light region and the near-infrared region is steep with respect to the near-infrared absorbing layer, which can be said as preferable for the NIR filter.
That is, with respect to the transmission spectrum of the near-infrared absorbing layer, the smaller the difference (λa−λc) between the shortest wavelength λa with transmittance of 1% in the region of 650 nm to 800 nm and the wavelength λc with transmittance of 70% on a shorter wavelength side than the λa, the steeper the absorption curve in the vicinity of the boundary between the visible light region and the near-infrared region. Here, λa−λc also depends on a wavelength width having transmittance of 1% or less (λb−λa; λb is the longest wavelength with transmittance of 1% in the wavelength region of 650 nm to 800 nm). Accordingly, in order to compare and evaluate the steepness of the absorption curve in the above region of the transmission spectrum of the near-infrared absorbing layer, λb−λa is fixed to 30 nm. That is, λb−λa of the near-infrared absorbing layer which the present filter has is not limited to 30 nm.
Further, in the Is value, (λa−λc) is multiplied by the refractive index nd(B) of the transparent resin (B) contained in the near-infrared absorbing layer as a coefficient. This is to standardize the difference in steepness among resins.
Regarding transmittance (%/nm) of the NIR filters 1 to 109 obtained above, transmission spectra were measured and calculated by using an ultraviolet visible light spectrophotometer (U-4100 type spectrophotometer made by Hitachi High-Technologies Corporation). Analysis results of transmission spectra of the near-infrared absorbing layers which the NIR filters have are presented in Table 4, Table 5 and Table 6 for the NIR filters 1 to 25, 26 to 51, 52 to 75, respectively, and are presented in Table 7 and Table 8 for the NIR filters 76 to 94, 95 to 109, respectively. In Table 4 to Table 8, the ratios (parts by mass) of dyes to 100 parts by mass of the transparent resin (B) and film thicknesses of the near-infrared absorbing layers are described together.
Further, conditions of preferred transmission spectra of the near-infrared absorbing layers in the present filter and Is values obtained by the formula: nd(B)×(λa-λc) described in above (ii-3) are described in Table 4 to Table 8 together with λa in the condition (ii-1) and λb-λa in the condition (ii-2). Note that values described in Table 4 to Table 8 are values obtained by subtracting transmittance of a glass plate from transmittance of an NIR filter. […]

[2] = Solubility of dye to organic solvent; type: physicochemical; settings: 50° C., mass % of the dye to the mass of the entire solution; for Solubility to organic solvent: MIBK: methyl isobutyl ketone
Description: Regarding the dyes (A11-1) to (A11-10) and (A11-20) to (A11-27) obtained above, solubility to organic solvent was evaluated as follows.
Three kinds of solvents, cyclohexanone, methyl isobutyl ketone (MIBK), toluene, were used as the organic solvent in the solubility test. Note that in Table 3, % is mass % of the dye to the mass of the entire solution. Further, the temperature of each organic solvent in the solubility test was 50° C.

[3] = transparent resin acrylic resin BR50, nd(B) 1.56, film thickness 2.3 μm
[4] = transparent resin polycarbonate EP5000, nd(B) 1.63, film thickness 2.4 μm
[5] = transparent resin polycarbonate SP1516, nd(B) 1.60, film thickness 0.9 μm
[6] = transparent resin polycarbonate SP3810, nd(B) 1.63, film thickness 1.0 μm
[7] = transparent resin polycarbonate SP3810, nd(B) 1.63, film thickness 2.8 μm

## CC(=O)Nc1cc2c(cc1C1=C([O-])C(=c3cc4c(cc3NC(C)=O)=[N+](C)C(C)C4(C)C)C1=O)C(C)(C)C(C)N2C (stereo not shown) [Example A11-20, reference compound]
[1]; [3]
  430 nm to 600 nm Average transmittance: 93.1%
  Is value (nd(B)×(λa-λc)): 142.1
  λa: 687 nm
  λa − λc: 91 nm
  λb: 717 nm
  λb − λa: 30 nm
  λc: 596 nm
  λmax: 704 nm
[1]; [4]
  430 nm to 600 nm Average transmittance: 95.6%
  Is value (nd(B)×(λa-λc)): 122.4
  λa: 693 nm
  λa − λc: 68 nm
  λb: 723 nm
  λb − λa: 30 nm
  λc: 618 nm
  λmax: 710 nm
[1]; [5]
  430 nm to 600 nm Average transmittance: 94.5%
  Is value (nd(B)×(λa-λc)): 126.4
  λa: 690 nm
  λa − λc: 79 nm
  λb: 720 nm
  λb − λa: 30 nm
  λc: 611 nm
  λmax: 706 nm
[1]; [6]
  430 nm to 600 nm Average transmittance: 93.6%
  Is value (nd(B)×(λa-λc)): 129.1
  λa: 693 nm
  λa − λc: 79 nm
  λb: 723 nm
  λb − λa: 30 nm
  λc: 614 nm
  λmax: 710 nm
[1]; [7]
  430 nm to 600 nm Average transmittance: 95.0%
  Is value (nd(B)×(λa-λc)): 124.2
  λa: 694 nm
  λa − λc: 76 nm
  λb: 724 nm
  λb − λa: 30 nm
  λc: 618 nm
  λmax: 710 nm
[2]
  Solubility to organic solvent: Cyclohexanone: <1.0% mass %
  Solubility to organic solvent: MIBK: <1.0% mass %
  Solubility to organic solvent: Toluene: <1.0% mass %

## CCCCCCCCCCCC(=O)Nc1cc2c(cc1C1=C([O-])C(=c3cc4c(cc3NC(=O)CCCCCCCCCCC)=[N+](C)C(C)C4(C)C)C1=O)C(C)(C)C(C)N2C (stereo not shown) [Example A11-25, reference compound]
[1]; [3]
  430 nm to 600 nm Average transmittance: 94.5%
  Is value (nd(B)×(λa-λc)): 129.6
  λa: 688 nm
  λa − λc: 83 nm
  λb: 718 nm
  λb − λa: 30 nm
  λc: 605 nm
  λmax: 705 nm
[1]; [4]
  430 nm to 600 nm Average transmittance: 95.5%
  Is value (nd(B)×(λa-λc)): 120.8
  λa: 693 nm
  λa − λc: 69 nm
  λb: 723 nm
  λb − λa: 30 nm
  λc: 619 nm
  λmax: 710 nm
[1]; [5]
  430 nm to 600 nm Average transmittance: 95.6%
  Is value (nd(B)×(λa-λc)): 124.8
  λa: 690 nm
  λa − λc: 78 nm
  λb: 720 nm
  λb − λa: 30 nm
  λc: 612 nm
  λmax: 707 nm
[1]; [6]
  430 nm to 600 nm Average transmittance: 94.6%
  Is value (nd(B)×(λa-λc)): 122.6
  λa: 693 nm
  λa − λc: 75 nm
  λb: 723 nm
  λb − λa: 30 nm
  λc: 618 nm
  λmax: 710 nm
[1]; [7]
  430 nm to 600 nm Average transmittance: 95.3%
  Is value (nd(B)×(λa-λc)): 119.3
  λa: 694 nm
  λa − λc: 73 nm
  λb: 724 nm
  λb − λa: 30 nm
  λc: 621 nm
  λmax: 710 nm
[2]
  Solubility to organic solvent: Cyclohexanone: 3.00% mass %
  Solubility to organic solvent: MIBK: 1.00% mass %
  Solubility to organic solvent: Toluene: 10%< mass %

## CCCC(CCC)C(=O)Nc1cc2c(cc1C1=C([O-])C(=c3cc4c(cc3NC(=O)C(CCC)CCC)=[N+](C)C(C)C4(C)C)C1=O)C(C)(C)C(C)N2C (stereo not shown) [Example A11-1]
[1]; [3]
  430 nm to 600 nm Average transmittance: 95.1%
  Is value (nd(B)×(λa-λc)): 110.9
  λa: 689 nm
  λa − λc: 71 nm
  λb: 719 nm
  λb − λa: 30 nm
  λc: 618 nm
  λmax: 706 nm
[1]; [4]
  430 nm to 600 nm Average transmittance: 96.5%
  Is value (nd(B)×(λa-λc)): 111.0
  λa: 694 nm
  λa − λc: 68 nm
  λb: 724 nm
  λb − λa: 30 nm
  λc: 626 nm
  λmax: 711 nm
[1]; [6]
  430 nm to 600 nm Average transmittance: 97.3%
  Is value (nd(B)×(λa-λc)): 112.8
  λa: 694 nm
  λa − λc: 69 nm
  λb: 724 nm
  λb − λa: 30 nm
  λc: 625 nm
  λmax: 706 nm
[1]; [7]
  430 nm to 600 nm Average transmittance: 96%
  Is value (nd(B)×(λa-λc)): 112.8
  λa: 695 nm
  λa − λc: 69 nm
  λb: 725 nm
  λb − λa: 30 nm
  λc: 626 nm
  λmax: 711 nm
[2]
  Solubility to organic solvent: Cyclohexanone: 10%< mass %
  Solubility to organic solvent: MIBK: 2.50% mass %
  Solubility to organic solvent: Toluene: 10%< mass %

Reference: US10495796B2, “Near-infrared cut filter” (AGC INC., priority 2012, dated 2019)
